Reference: ChEMBL document CHEMBL3612054 (Bioorg Med Chem, 2015)
Converted amounts (≈) assume the structure as drawn.

Assays:
[1] = molecular target: T1, Voltage-gated inwardly rectifying potassium channel KCNH2 (Homo sapiens, UniProt Q12809)
Description: (§1) Displacement of [3H]-astemizole from human ERG

[2] = molecular target: Delta-type opioid receptor (Homo sapiens) (UniProt P41143)
Description: Antagonist activity at cloned human delta opioid receptor assessed as inhibition of DPDPE-induced [35S]GTPgammaS binding

[3] = Permeability of the compound at pH 5.5 at 10 uM by PAMPA; format: physicochemical; details: pH 5.5, 10 µM
[4] = molecular target: T1, Voltage-gated inwardly rectifying potassium channel KCNH2; remark: listed apart in the source
Description: as §1

[5] = Metabolic stability of the compound in plasma (unknown origin) assessed as compound remaining at 10 uM after 60 mins; format: ADME, cell-free; details: read-out: Stability
MDCK = experiment: Permeability from apical to basolateral side in MDCK cells expressing human MDR1 at 10 uM after 1 hr by chromatography analysis; format: ADME, cell-based, Canis lupus familiaris; details: dog
[6] = Metabolic stability of the compound in hepatic S9 fraction (unknown origin) assessed as compound remaining at 10 uM after 60 mins; format: ADME, tissue-based, Liver; details: read-out: Stability
[7] = Solubility of the compound in 10 mM phosphate buffer at pH 3 after 90 mins by LC/MS analysis; format: physicochemical
[8] = Solubility of the compound in 10 mM phosphate buffer at pH 7.4 after 90 mins by LC/MS analysis; format: physicochemical
[9] = Permeability of the compound at pH 7.4 at 10 uM by PAMPA; format: physicochemical; details: pH 7.4, 10 µM

T1 sequence (Q12809 whole entry): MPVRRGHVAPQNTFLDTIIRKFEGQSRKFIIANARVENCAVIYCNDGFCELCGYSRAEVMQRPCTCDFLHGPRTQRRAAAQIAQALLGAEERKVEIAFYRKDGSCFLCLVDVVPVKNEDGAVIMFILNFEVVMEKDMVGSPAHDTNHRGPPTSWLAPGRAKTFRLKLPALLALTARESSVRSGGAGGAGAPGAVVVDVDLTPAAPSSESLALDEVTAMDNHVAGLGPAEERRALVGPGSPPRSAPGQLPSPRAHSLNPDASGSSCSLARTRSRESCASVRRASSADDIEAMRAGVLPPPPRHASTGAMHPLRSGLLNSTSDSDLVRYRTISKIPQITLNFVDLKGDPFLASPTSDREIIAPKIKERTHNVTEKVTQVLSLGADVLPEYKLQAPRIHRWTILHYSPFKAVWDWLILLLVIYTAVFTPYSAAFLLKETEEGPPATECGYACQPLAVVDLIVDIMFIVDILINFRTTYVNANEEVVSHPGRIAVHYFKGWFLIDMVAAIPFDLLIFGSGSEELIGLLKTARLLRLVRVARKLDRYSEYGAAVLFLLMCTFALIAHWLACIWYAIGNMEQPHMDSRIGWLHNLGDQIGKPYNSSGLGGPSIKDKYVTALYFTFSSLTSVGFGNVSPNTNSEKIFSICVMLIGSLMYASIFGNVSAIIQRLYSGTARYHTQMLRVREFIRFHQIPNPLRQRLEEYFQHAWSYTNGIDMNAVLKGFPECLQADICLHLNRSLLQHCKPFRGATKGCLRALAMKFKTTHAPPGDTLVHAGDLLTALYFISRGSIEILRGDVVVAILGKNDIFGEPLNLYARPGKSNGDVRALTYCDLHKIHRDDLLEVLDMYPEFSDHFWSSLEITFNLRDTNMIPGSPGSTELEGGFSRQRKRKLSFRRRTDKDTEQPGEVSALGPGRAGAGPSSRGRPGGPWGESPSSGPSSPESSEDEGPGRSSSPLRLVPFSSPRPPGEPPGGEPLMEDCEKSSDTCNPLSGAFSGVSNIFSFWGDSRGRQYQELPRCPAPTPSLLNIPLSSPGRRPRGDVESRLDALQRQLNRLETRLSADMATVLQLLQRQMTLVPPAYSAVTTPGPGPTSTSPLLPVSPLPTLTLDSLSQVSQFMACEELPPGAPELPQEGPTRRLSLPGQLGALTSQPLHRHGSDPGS
Sequence of Delta-type opioid receptor (Homo sapiens) (P41143 whole entry): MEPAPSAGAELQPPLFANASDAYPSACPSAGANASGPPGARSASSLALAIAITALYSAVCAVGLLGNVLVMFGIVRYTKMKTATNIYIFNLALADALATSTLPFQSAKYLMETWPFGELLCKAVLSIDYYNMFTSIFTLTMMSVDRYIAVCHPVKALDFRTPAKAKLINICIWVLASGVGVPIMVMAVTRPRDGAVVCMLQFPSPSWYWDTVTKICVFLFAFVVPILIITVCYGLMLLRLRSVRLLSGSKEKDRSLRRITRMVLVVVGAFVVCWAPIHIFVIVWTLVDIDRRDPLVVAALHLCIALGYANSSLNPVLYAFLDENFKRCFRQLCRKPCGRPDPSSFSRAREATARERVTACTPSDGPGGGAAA

SMILES	Ki [1] [µM]	Ke [2] [nM]	permeability [3] [%]	Ki [4] [µM]	remaining at 1 h, 10 µM [5] [%]	permeability (MDCK) [%]	remaining at 1 h, 10 µM [6] [%]	solubility [7] [µM]	solubility [8] [µM]	permeability [9] [%]
CC(C)[C@@H](CN1CCC(c2ccccc2)CC1)NC(=O)[C@H]1Cc2ccc(O)cc2CN1	0.777	281								
CC(C)[C@@H](CN1CC[C@@](C)(c2cccc(O)c2)[C@@H](C)C1)NC(=O)[C@H]1Cc2ccc(O)cc2CN1 [JDTIC]			57.9	8.82	97	11	76	34 (≈ 15.8 µg/mL)	11 (≈ 5.12 µg/mL)	
CC(C)[C@@H](CN1CC[C@@](C)(c2ccccc2)[C@@H](C)C1)NC(=O)[C@H]1Cc2ccc(O)cc2CN1			67.3	7.05	67	27	82	42 (≈ 18.9 µg/mL)	11 (≈ 4.95 µg/mL)	91.4
CC(C)[C@@H](CN1CCC(c2cccc(F)c2)CC1)NC(=O)[C@H]1Cc2ccc(O)cc2CN1	0.436									
CC(C)[C@@H](CN1CCC(C)(c2cccc(F)c2)CC1)NC(=O)[C@H]1Cc2ccc(O)cc2CN1	4.24					1.3				
